Results reported in patent publication US10858342B2, “Bicyclic imidazole derivatives useful for the treatment of renal diseases, cardiovascular diseases and fibrotic diseases” (Boehringer Ingelheim International GmbH, priority 2016, dated 2020).
pIC50: −log10 of the molar value. Read-outs that look alike come from different tables or passages of the source.

How the values were obtained:
Format in all cases: biochemical, cynomolgus monkey
[1] = molecular target: aldosterone synthase (CYP11B2) (Macaca fascicularis, UniProt A0A2K5UPL9); test: Inhibition of aldosterone synthase (cynomolgus adrenal mitochondria, aldosterone by mass spectrometry)
aldosterone synthase (CYP11B2) (Macaca fascicularis, UniProt A0A2K5UPL9), sequence (A0A2K5UPL9 1-503): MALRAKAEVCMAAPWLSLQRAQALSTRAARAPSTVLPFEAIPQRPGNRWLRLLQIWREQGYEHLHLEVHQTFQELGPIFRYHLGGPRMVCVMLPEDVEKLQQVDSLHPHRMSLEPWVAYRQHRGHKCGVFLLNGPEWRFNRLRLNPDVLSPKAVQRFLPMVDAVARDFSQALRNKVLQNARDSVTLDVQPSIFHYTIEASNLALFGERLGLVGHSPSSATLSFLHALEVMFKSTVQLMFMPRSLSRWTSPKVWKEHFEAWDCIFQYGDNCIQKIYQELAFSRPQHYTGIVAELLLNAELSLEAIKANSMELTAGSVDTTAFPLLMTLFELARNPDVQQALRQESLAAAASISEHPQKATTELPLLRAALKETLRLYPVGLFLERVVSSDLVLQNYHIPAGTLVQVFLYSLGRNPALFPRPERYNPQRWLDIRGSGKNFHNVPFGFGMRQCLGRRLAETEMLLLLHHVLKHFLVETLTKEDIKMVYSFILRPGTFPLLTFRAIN
Description: (§1) The aldosterone synthase and cortisol synthase inhibition assays employ cynomolgus adrenal gland mitochondria as the source of aldosterone synthase (CYP11B2) and cortisol synthase (CYP11B1). […] One unit of CYP11B2 and CYP11B1 activity in these preparations is defined as the amount of enzyme that generates 1 pmol of product in one hour under the conditions described.
(§2) The compounds of the invention may be evaluated for aldosterone synthase inhibition by the following assay:
(§3) Assays are performed in 96-well format in a final volume of 60 microL/well, containing 100 mM potassium phosphate, pH 7.4, 1% (v/v) DMSO, and additionally, 2 μM of corticosterone and 50 units of CYP11B2 activity. Reactions are started by the addition of NADPH to 1 mM and allowed to proceed for 90 minutes at 37° C. Reactions are terminated by the addition of 60 μL of MeCN containing an internal standard for mass spectrometry. One hundred microliters are then transferred to a glass filter plate and centrifuged at 570×g for 5 minutes and the filtrate is collected. Reaction product aldosterone is quantified by mass spectrometry. To determine the assay blank value (0% activity), NADPH is omitted from some reactions.
(§4) Dose dependent inhibition is quantified by the inclusion of compound at various concentrations. Maximum activity (100%) is defined by reactions containing NADPH, but without compound.

[2] = system: aldosterone synthase (CYP11B2); test: as above; details: selectivity for aldosterone synthase inhibition over cortisol synthase (CYP11B1) inhibition, fold
Description: as §1, §2, §3, §4

[3] = molecular target: cortisol synthase (CYP11B1) (Macaca fascicularis, UniProt A0A2K5ULY1); test: Inhibition of cortisol synthesis (cynomolgus adrenal mitochondria, cortisol by mass spectrometry)
Description: The aldosterone synthase and cortisol synthase inhibition assays employ cynomolgus adrenal gland mitochondria as the source of aldosterone synthase (CYP11B2) and cortisol synthase (CYP11B1). Mitochondria are prepared from frozen cynomolgus monkey adrenal glands according to Method A described in by J. D. McGarry et al. (Biochem. J., 1983, 214, 21-28), with a final resuspension in the AT buffer described in R. Yamaguchi et al. (Cell Death and Differentiation, 2007, 14, 616-624), frozen as aliquots in liquid nitrogen and stored at −80° C. until use. One unit of CYP11B2 and CYP11B1 activity in these preparations is defined as the amount of enzyme that generates 1 pmol of product in one hour under the conditions described.
as §3
Dose dependent inhibition is quantified by the inclusion of compound at various concentrations. Maximum activity (100%) is defined by reactions containing NADPH, but without compound. Activities at each concentration are expressed as a percentage of the maximum activity (y-axis) and plotted against concentration of compound (x-axis) and the concentration corresponding to 50% activity (IC50) determined using the XLFit curve-fitting program using a 4-parameter logistic model.
Assays are performed as for aldosterone synthase except for the use of 150 units of CYP11B1, 11-deoxycortisol as substrate and cortisol measured as product.

[4] = 2 μM corticosterone substrate, 50 units CYP11B2, 90 min, 37° C., read-out: Aldosterone Inhibition IC50
[5] = 11-deoxycortisol substrate, 150 units CYP11B1; read-out: Cortisol Inhibition IC50
[6] = read-out: Cortisol Inhibition IC50; 11-deoxycortisol substrate, 150 units CYP11B1

Row | Compound | pIC50 [1, 4] | Selectivity [2] | pIC50 [3, 5] | pIC50 [3, 6] | pIC50 [1]
1 | CC1(C)CC(=O)c2c(ncn2C2CCc3ncncc3C2)C1 (stereo not drawn) [C-ACV, 6,6-Dimethyl-3-(5,6,7,8-tetrahydro-quinazolin-6-yl)-3,5,6,7-tetrahydro-benzoimidazol-4-one] | 6.07 | 35 | < 4.52 | – | –
2 | CC(C)Oc1ccc(-n2cnc3c2C(=O)CC(C)(C)C3)cc1 [C-ABQ, 3-(4-Isoporopoxy-phenyl)-6,6-dimethyl-3,5,6,7-tetrahydro-benzoimidazol-4-one] | 6.55 | – | < 4.00 | – | –
3 | C[C@H]1Cc2cc(-n3cnc4c3C(=O)CCC4)ccc2O1 (stereo in doubt) [C-AAZ-B, 3-(2-Methyl-2,3-dihydro-benzofuran-5-yl)-3,5,6,7-tetrahydro-benzoimidazol-4-one] | 7.15 | 430 | < 4.52 | – | –
4 | CC(=O)N1CCc2cc(-n3cnc4c3C(=O)CCC4)ccc21 [C-AAA, 3-(1-Acetyl-2,3-dihydro-1H-indol-5-yl)-3,5,6,7-tetrahydro-benzoimidazol-4-one] | 6.29 | 59 | < 4.52 | – | –
5 | N#Cc1ccc(-n2cnc3c2C(=O)CC2(CCC2)C3)cc1 [C-AAT, 4-(7-Oxospiro[4,6-dihydrobenzimidazole-5,1′-cyclobutan]-1-yl)benzonitrile] | 8.42 | 130 | 6.32 | – | –
6 | CC1(C)CC(=O)c2c(ncn2-c2ccccc2)C1 [C-ACA, 6,6-Dimethyl-3-phenyl-3,5,6,7-tetrahydro-benzoimidazol-4-one] | 6.60 | 46 | 4.92 | – | –
7 | CC1(C)CC(=O)c2c(ncn2C2CCCCc3ccccc32)C1 (stereo not drawn) [C-ACW, 6,6-Dimethyl-3-(6,7,8,9-tetrahydro-5H-benzocyclohepten-5-yl)-3,5,6,7-tetrahydro-benzoimidazol-4-one] | 7.62 | 300 | 5.14 | – | –
8 | CC1(C)CC(=O)c2c(ncn2-c2cc(Cl)cc(Cl)c2)C1 [C-ABH, 3-(3,5-Dichloro-phenyl)-6,6-dimethyl-3,5,6,7-tetrahydro-benzoimidazol-4-one] | 7.66 | 240 | 5.28 | – | –
9 | O=C1CCCc2ncn(-c3ccc4c(c3)CCCN4)c21 [C-ABB, 3-(1,2,3,4-Tetrahydro-quinolin-6-yl)-3,5,6,7-tetrahydro-benzoimidazol-4-one] | 6.60 | 120 | < 4.52 | – | –
10 | CNC(=O)[C@H]1CC(=O)c2c(ncn2-c2ccc(C#N)c(Cl)c2)C1 [C-AEH, (R)-1-(3-Chloro-4-cyano-phenyl)-7-oxo-4,5,6,7-tetrahydro-1H-benzoimidazole-5-carboxylic acid methylamide] | 7.24 | 526 | – | < 4.52 | –
11 | CCOC(=O)C1CC(=O)c2c(ncn2-c2ccc(C#N)c(Cl)c2)C1 (stereo not drawn) [C-AAY, 1-(3-Chloro-4-cyano-phenyl)-7-oxo-4,5,6,7-tetrahydro-1H-benzoimidazole-5-carboxylic acid ethyl ester] | 8.14 | – | – | 5.29 | –
12 | CC1(C)CC(=O)c2c(ncn2-c2cccc(Cl)c2Cl)C1 [C-ABF, 3-(2,3-Dichloro-phenyl)-6,6-dimethyl-3,5,6,7-tetrahydro-benzoimidazol-4-one] | 8.42 | 160 | 6.21 | – | –
13 | NC(=O)N1CCCc2cc(-n3cnc4c3C(=O)CCC4)ccc21 [C-ADZ, 6-(7-Oxo-4,5,6,7-tetrahydro-benzoimidazol-1-yl)-3,4-dihydro-2H-quinoline-1-carboxylic acid amide] | 7.00 | 300 | < 4.52 | – | –
14 | CC1(C)CC(=O)c2c(ncn2Cc2ccc(C(C)(C)O)cc2)C1 [C-ADV, 3-[4-(1-Hydroxy-1-methyl-ethyl)-benzyl]-6,6-dimethyl-3,5,6,7-tetrahydro-benzoimidazol-4-one] | 7.60 | 1.4 | 7.46 | – | –
15 | CN1Cc2cc(-n3cnc4c3C(=O)CCC4)ccc2CC1=O [C-AAC, 2-Methyl-7-(7-oxo-4,5,6,7-tetrahydro-benzoimidazol-1-yl)-1,4-dihydro-2H-isoquinolin-3-one] | 6.14 | 42 | < 4.52 | – | –
16 | CC1(C)CC(=O)c2c(ncn2C2CCCCC2)C1 [C-ACK, 3-Cyclohexyl-6,6-dimethyl-3,5,6,7etrahydro-benzoimidazol-4-one] | 6.59 | – | 5.21 | – | –

Row | Compound | pIC50 [1, 4] | Selectivity [2] | pIC50 [3, 5] | pIC50 [3, 6] | pIC50 [1]
17 | CC1(C)CC(=O)c2c(ncn2C2Cc3ccccc3C2)C1 [C-ADG] | 7.33 | – | 4.21 | – | –
18 | CC1(C)CC(=O)c2c(ncn2[C@H]2CC[C@@H](C#N)CC2)C1 [C-ADL, 4-(5,5-Dimethyl-7-oxo-4,5,6,7-tetrahydro-benzoimidazol-1-yl)-cyclohexanecarbonitrile] | 7.66 | – | 5.10 | – | –
19 | CC1(C)CC(=O)c2c(ncn2C2CCc3cc(Br)ccc3C2)C1 (stereo not drawn) [C-ACM, 3-(6-Bromo-1,2,3,4-tetrahydro-naphthalen-2-yl)-6,6-dimethyl-3,5,6,7-tetrahydro-benzoimidazol-4-on] | 7.28 | – | < 4.52 | – | –
20 | CC1(C)CC(=O)c2c(ncn2-c2cccc(C#N)c2)C1 [C-ABS, 3-(5,5-Dimethyl-7-oxo-4,5,6,7-tetrahydro-benzoimidazol-1-yl)-benzonitrile] | 6.60 | – | 5.00 | – | –
21 | CC1(C)CC(=O)c2c(ncn2Cc2ccc(C(=O)N3CC[C@@H](O)C3)cc2)C1 [C-ADT, 3-[4-((R)-3-Hydroxy-pyrrolidine-1-carbonyl)-benzyl]-6,6-dimethyl-3,5,6,7-tetrahydro-benzoimidazol-4-one] | 6.54 | – | 4.54 | – | –
22 | O=C1CCCc2ncn(-c3ccc(Cl)c(Cl)c3)c21 [C-ACC, 3-(3,4-Dichloro-phenyl)-3,5,6,7-tetrahydro-benzoimidazol-4-one] | 8.26 | – | 6.00 | – | –
23 | CN(C)C(=O)[C@H]1CC(=O)c2c(ncn2-c2ccc(C#N)c(Cl)c2)C1 [C-AEE, (R)-1-(3-Chloro-4-cyano-phenyl)-7-oxo-4,5,6,7-tetrahydro-1H-benzoimidazole-5-carboxylic acid dimethylamide] | 6.72 | – | – | < 4.52 | –
24 | N#C[C@H]1CC[C@H](n2cnc3c2C(=O)CCC3)CC1 [C-ACJ, trans-4-(7-Oxo-5,6-dihydro-4H-benzimidazol-1-yl)cyclohexanecarbonitrile] | 7.52 | – | 4.89 | – | –
25 | N#Cc1ccc(-n2cnc3c2C(=O)CC2(CCOCC2)C3)cc1Cl [C-AAQ, 3-(3-Chloro-4-cyano-phenyl)-6,6-3-o-tetrahydropyran-3,5,6,7-tetrahydro-benzoimidazol-4-one] | 7.36 | – | – | 5.54 | –
26 | CC1(C)CC(=O)c2c(ncn2C2CCCc3ccccc32)C1 (stereo not drawn) [C-ACS, 6,6-Dimethyl-3-(1,2,3,4-tetrahydronaphthalen-1-yl)-3,5,6,7-tetrahydro-benzoimidazol-4-one] | 7.03 | – | – | 4.59 | –
27 | N#Cc1ccc(-n2cnc3c2C(=O)CC(CO)C3)cc1Cl (stereo not drawn) [C-AED, 2-Chloro-4-(5-hydroxymethyl-7-oxo-4,5,6,7-tetrahydro-benzoimidazol-1-yl)-benzonitrile] | 7.74 | – | – | 5.07 | –
28 | Cc1ccc(-n2cnc3c2C(=O)CC(C)(C)C3)cc1C#N [C-ABY, 5-(5,5-Dimethyl-7-oxo-4,5,6,7-tetrahydro-benzoimidazol-1-yl)-2-methyl-benzonitrile] | 6.89 | – | 5.14 | – | –
29 | CC(=O)Nc1ccc(Cn2cnc3c2C(=O)CC(C)(C)C3)cc1 [C-ADE, N-[4-(5,5-Dimethyl-7-oxo-4,5,6,7-tetrahydro-benzoimidazol-1-ylmethyl)-phenyl]-acetamide] | 7.24 | – | 5.72 | – | –
30 | N#Cc1ccc(-n2cnc3c2C(=O)CCC3)nc1 [C-ADW, 6-(7-Oxo-4,5,6,7-tetrahydro-benzoimidazol-1-yl)-nicotinonitrile] | – | – | 4.60 | – | 6.54
31 | CC1(C)CC(=O)c2c(ncn2C2CCC3CCCCC3C2)C1 (stereo not drawn) [C-ACO, 3-(Decahydro-naphthalen-2-yl)-6,6-dimethyl-3,5,6,7-tetrahydro-benzoimdazol-4-one] | 6.38 | – | 4.85 | – | –
